According to patent US10202373B2, “Heteroaryls and uses thereof” (MILLENNIUM PHARMACEUTICALS, INC., priority 2014, dated 2019):

Molecular target: human VPS34 (Homo sapiens (Human), UniProt Q8NEB9)
Assay: Human VPS34 enzyme assay (Adapta TR-FRET)
Type: biochemical
Settings: for inhibition at 1.11 µM: 1 h, inhibition of VPS34 at a 1.11 μM concentration, read-out: Percent Inhibition; for IC50: human VPS34 enzyme assay, IC50 ranges
Method: VPS34 (accession number GB:BC033004) was cloned into pDEST20-Thombin as N-terminal GST tagged fusion proteins using the Gateway system (Invitrogen, catalog#11804-013). The sequences were verified before recombinant protein expression using the Baculovirus Expression System with Gateway® Technology. For expression VPS34 was infected at 1 MOI in SF9 cells and harvested 72 hours post infection. For purification, VPS34 is purified by Glutathione Sepharose 4 Fast Flow (GE Healthcare #17-5132-03) followed by HiTrap Q (GE Healthcare #17-1153-01). Human VPS34 Enzyme Assay Method 100 nL compounds in DMSO are added to wells of a 384 well microtitre plate (Greiner 780076). At room temperature: 5 ul VPS34 reaction buffer (Invitrogen Assay Buffer Q (diluted 1 in 5 with nanopure water) plus 2 mM DTT and 2 mM MnCl2) containing ATP (20 uM, Promega) and 200 uM PI-PS substrate (Invitrogen PV5122) is added followed immediately by 5 ul VPS34 reaction buffer (as above) containing VPS34 (5 nM, Millennium Protein Sciences Group) and the mixture is incubated with shaking at room temperature for 1 hour. Then 5 ul […]-detect mix (as per Invitrogen Adapta Assay kit (PV5009) instructions (contains kinase quench buffer, TR-FRET buffer, Adapta Eu anti-ADP antibody and Alexa Fluor 647 ADP tracer)) is added to quench the reaction. The plates are then incubated for 30 minutes at room temperature with shaking and then read on a BMG PheraStar Plus reader. For the assay methods described above, test compound percent inhibition, at various concentrations, is calculated relative to control (DMSO and EDTA) treated samples. Compound concentration versus percent inhibition curves are fitted to generate IC50 values. One skilled in the art will appreciate that the values generated either as percentage inhibition at a single concentration or IC50 values are subject to experimental variation. […] Additionally, compounds of the invention that inhibit VPS34 are described with the following IC50 ranges: […]

Chain of human VPS34 (Q8NEB9 whole entry): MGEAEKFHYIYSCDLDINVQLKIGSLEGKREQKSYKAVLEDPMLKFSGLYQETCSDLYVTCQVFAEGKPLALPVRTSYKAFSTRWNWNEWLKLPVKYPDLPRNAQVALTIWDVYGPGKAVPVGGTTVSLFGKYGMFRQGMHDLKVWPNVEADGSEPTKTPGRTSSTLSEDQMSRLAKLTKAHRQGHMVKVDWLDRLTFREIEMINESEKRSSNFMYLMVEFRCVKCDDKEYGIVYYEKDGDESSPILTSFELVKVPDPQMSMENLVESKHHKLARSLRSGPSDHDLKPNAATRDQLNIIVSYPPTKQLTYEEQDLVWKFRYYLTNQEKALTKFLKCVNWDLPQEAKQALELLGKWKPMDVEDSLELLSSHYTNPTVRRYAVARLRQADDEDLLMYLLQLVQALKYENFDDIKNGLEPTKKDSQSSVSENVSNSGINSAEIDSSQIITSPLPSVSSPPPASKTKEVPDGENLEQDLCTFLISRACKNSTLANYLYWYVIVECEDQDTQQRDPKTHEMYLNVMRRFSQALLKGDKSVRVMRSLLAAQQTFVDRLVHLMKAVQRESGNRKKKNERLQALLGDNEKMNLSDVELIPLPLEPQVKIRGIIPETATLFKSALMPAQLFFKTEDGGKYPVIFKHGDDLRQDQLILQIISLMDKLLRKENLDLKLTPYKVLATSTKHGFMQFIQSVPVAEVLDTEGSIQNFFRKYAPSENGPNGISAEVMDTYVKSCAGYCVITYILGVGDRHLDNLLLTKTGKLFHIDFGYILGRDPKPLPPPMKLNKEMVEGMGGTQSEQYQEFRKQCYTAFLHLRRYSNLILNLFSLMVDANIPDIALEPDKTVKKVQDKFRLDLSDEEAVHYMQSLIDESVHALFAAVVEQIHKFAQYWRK

## CC(=O)Nc1cc(-c2cncc3c2cc(C)n3S(=O)(=O)c2ccccc2)ccn1 [Compound I-31, N-{4-[2-methyl-1-(phenylsulfonyl)-1H-pyrrolo[2,3-c]pyridin-4-yl]pyridin-2-yl}acetamide]
  inhibition at 1.11 µM: > 99%
  IC50: 10 to 50 nM

## c1cc(Nc2cc(-c3cncc4[nH]ccc34)ccn2)ncn1 [Compound I-50, N-[4-(1H-pyrrolo[2,3-c]pyridin-4-yl)pyridin-2-yl]pyrimidin-4-amine]
  inhibition at 1.11 µM: 82%
  IC50: 10 to 50 nM

## CC(=O)Nc1cc(-c2cncc3c2ccn3S(=O)(=O)C2CC2)c(F)cn1 [Compound I-8, N-{4-[1-(cyclopropylsulfonyl)-1H-pyrrolo[2,3-c]pyridin-4-yl]-5-fluoropyridin-2-yl}acetamide]
  inhibition at 1.11 µM: > 99%
  IC50: 10 to 50 nM

## O=S(=O)(c1ccccc1)n1ccc2c(-c3ccnc(Nc4ncco4)c3)cncc21 [Compound I-13, N-(1,3-oxazol-2-yl)-4-[1-(phenylsulfonyl)-1H-pyrrolo[2,3-c]pyridin-4-yl]pyridin-2-amine]
  inhibition at 1.11 µM: > 99%
  IC50: 10 to 50 nM

## CC(=O)Nc1cc(-c2cnc(C)c3c2ccn3S(=O)(=O)c2ccccc2)ccn1 [Compound I-4, N-{4-[7-methyl-1-(phenylsulfonyl)-1H-pyrrolo[2,3-c]pyridin-4-yl]pyridin-2-yl}acetamide]
  inhibition at 1.11 µM: > 99%
  IC50: < 10 nM

## CCOC(=O)Nc1cc(-c2cnc(C)c3c2ccn3S(=O)(=O)c2ccccc2)ccn1 [Compound I-47, ethyl {4-[7-methyl-1-(phenylsulfonyl)-1H-pyrrolo[2,3-c]pyridin-4-yl]pyridin-2-yl}carbamate]
  inhibition at 1.11 µM: > 99%
  IC50: 10 to 50 nM

## CC(=O)Nc1cc(-c2cncc3c2ccn3S(=O)(=O)C2CC2)ccn1 [Compound I-37, N-{4-[1-(cyclopropylsulfonyl)-1H-pyrrolo[2,3-c]pyridin-4-yl]pyridin-2-yl}acetamide]
  inhibition at 1.11 µM: > 99%
  IC50: < 10 nM

## CC(=O)Nc1cc(-c2cnc(C)c3c2ccn3S(=O)(=O)c2ccccc2C)ccn1 [Compound I-34, N-(4-{7-methyl-1-[(2-methylphenyl)sulfonyl]-1H-pyrrolo[2,3-c]pyridin-4-yl}pyridin-2-yl)acetamide]
  inhibition at 1.11 µM: > 99%
  IC50: 10 to 50 nM

## CC(=O)Nc1cc(-c2cncc3c2cnn3S(=O)(=O)C2CC2)ccn1 [Compound I-22, N-{4-[1-(cyclopropylsulfonyl)-1H-pyrazolo[3,4-c]pyridin-4-yl]pyridin-2-yl}acetamide]
  inhibition at 1.11 µM: > 99%
  IC50: 50 to 100 nM

## COC(=O)Nc1cc(-c2cnc(C)c3c2ccn3S(=O)(=O)C2CC2)ccn1 [Compound I-43, methyl {4-[1-(cyclopropylsulfonyl)-7-methyl-1H-pyrrolo[2,3-c]pyridin-4-yl]pyridin-2-yl}carbamate]
  inhibition at 1.11 µM: > 99%
  IC50: < 10 nM

## CC(=O)Nc1cc(-c2cncc3[nH]ccc23)ccn1 [Compound I-20, N-[4-(1H-pyrrolo[2,3-c]pyridin-4-yl)pyridin-2-yl]acetamide]
  inhibition at 1.11 µM: > 99%
  IC50: 50 to 100 nM

## CC(=O)Nc1cc(-c2cnc(C)c3c2ccn3S(=O)(=O)C2CC2)ccn1 [Compound I-44, N-{4-[1-(cyclopropylsulfonyl)-7-methyl-1H-pyrrolo[2,3-c]pyridin-4-yl]pyridin-2-yl}acetamide]
  inhibition at 1.11 µM: > 99%
  IC50: 10 to 50 nM

## COC(=O)Nc1cc(-c2cnc(OC)c3c2ccn3S(C)(=O)=O)ccn1 [Compound I-1, methyl {4-[7-methoxy-1-(methylsulfonyl)-1H-pyrrolo[2,3-c]pyridin-4-yl]pyridin-2-yl}carbamate]
  inhibition at 1.11 µM: > 99%
  IC50: < 10 nM

## CC(=O)Nc1cc(-c2cnc(C)c3c2ccn3S(=O)(=O)c2ccc(F)cc2F)ccn1 [Compound I-11, N-(4-{1-[(2,4-difluorophenyl)sulfonyl]-7-methyl-1H-pyrrolo[2,3-c]pyridin-4-yl}pyridin-2-yl)acetamide]
  inhibition at 1.11 µM: > 99%
  IC50: 10 to 50 nM

## O=C(Cc1nnn[nH]1)Nc1cc(-c2cncc3c2ccn3S(=O)(=O)C2CC2)ccn1 [Compound I-27, N-{4-[1-(cyclopropylsulfonyl)-1H-pyrrolo[2,3-c]pyridin-4-yl]pyridin-2-yl}-2-(1H-tetrazol-5-yl)acetamide]
  inhibition at 1.11 µM: > 99%
  IC50: 10 to 50 nM

## CC(=O)Nc1cc(-c2cnc(C)c3c2ccn3S(=O)(=O)N2CCCC2)ccn1 [Compound I-23, N-{4-[7-methyl-1-(pyrrolidin-1-ylsulfonyl)-1H-pyrrolo[2,3-c]pyridin-4-yl]pyridin-2-yl}acetamide]
  inhibition at 1.11 µM: > 99%
  IC50: < 10 nM

## CC(=O)Nc1cc(-c2cnc(C)c3c2c(F)cn3S(C)(=O)=O)ccn1 [Compound I-46, N-{4-[3-fluoro-7-methyl-1-(methylsulfonyl)-1H-pyrrolo[2,3-c]pyridin-4-yl]pyridin-2-yl}acetamide]
  inhibition at 1.11 µM: > 99%
  IC50: 10 to 50 nM

## Cc1nccc(Nc2cc(-c3cnc(C)c4[nH]ccc34)ccn2)n1 [Compound I-51, 2-methyl-N-[4-(7-methyl-1H-pyrrolo[2,3-c]pyridin-4-yl)pyridin-2-yl]pyrimidin-4-amine]
  inhibition at 1.11 µM: 91%
  IC50: 10 to 50 nM

## CC(=O)Nc1cc(-c2cnc(C)c3c2ccn3CC2CC2)ccn1 [Compound I-36, N-{4-[1-(cyclopropylmethyl)-7-methyl-1H-pyrrolo[2,3-c]pyridin-4-yl]pyridin-2-yl}acetamide]
  inhibition at 1.11 µM: 79%
  IC50: > 100 nM

## COC(=O)Nc1cc(-c2cnc(OC)c3c2ccn3S(=O)(=O)c2ccccc2)ccn1 [Compound I-10, methyl {4-[7-methoxy-1-(phenylsulfonyl)-1H-pyrrolo[2,3-c]pyridin-4-yl]pyridin-2-yl}carbamate]
  inhibition at 1.11 µM: > 99%
  IC50: < 10 nM

## CS(=O)(=O)n1ccc2c(-c3ccnc(N)c3)cncc21 [Compound I-32, 4-[1-(methylsulfonyl)-1H-pyrrolo[2,3-c]pyridin-4-yl]pyridin-2-amine]
  inhibition at 1.11 µM: 30%
  IC50: > 100 nM

## COC(=O)Nc1cc(-c2cncc3c2ccn3S(C)(=O)=O)ccn1 [Compound I-29, methyl {4-[1-(methylsulfonyl)-1H-pyrrolo[2,3-c]pyridin-4-yl]pyridin-2-yl}carbamate]
  inhibition at 1.11 µM: > 99%
  IC50: 10 to 50 nM

## COC(=O)Nc1cc(-c2cncc3c2ccn3S(=O)(=O)C2CC2)ccn1 [Compound I-30, methyl {4-[1-(cyclopropylsulfonyl)-1H-pyrrolo[2,3-c]pyridin-4-yl]pyridin-2-yl}carbamate]
  inhibition at 1.11 µM: 99%
  IC50: 10 to 50 nM

## CC(=O)Nc1cc(-c2cncc3c2ccn3S(=O)(=O)c2ccccc2)ccn1 [Compound I-39, N-{4-[1-(phenylsulfonyl)-1H-pyrrolo[2,3-c]pyridin-4-yl]pyridin-2-yl}acetamide]
  inhibition at 1.11 µM: > 99%
  IC50: < 10 nM

## COC(=O)Nc1cc(-c2cncc3c2ccn3S(=O)(=O)N(C)C)ccn1 [Compound I-17, methyl {4-[1-(dimethylsulfamoyl)-1H-pyrrolo[2,3-c]pyridin-4-yl]pyridin-2-yl}carbamate]
  inhibition at 1.11 µM: > 99%
  IC50: < 10 nM

## CC(=O)Nc1cc(-c2cncc3c2ccn3S(=O)(=O)N(C)C)ccn1 [Compound I-33, N-{4-[1-(dimethylsulfamoyl)-1H-pyrrolo[2,3-c]pyridin-4-yl]pyridin-2-yl}acetamide]
  inhibition at 1.11 µM: > 99%
  IC50: < 10 nM

## COC(=O)Nc1cc(-c2cnc(C)c3c2ccn3S(=O)(=O)N(C)C)ccn1 [Compound I-6, methyl {4-[1-(dimethylsulfamoyl)-7-methyl-1H-pyrrolo[2,3-c]pyridin-4-yl]pyridin-2-yl}carbamate]
  inhibition at 1.11 µM: > 99%
  IC50: 10 to 50 nM

## COC(=O)Nc1cc(-c2cnc(C)c3c2ccn3S(=O)(=O)CC(C)C)ccn1 [Compound I-15, methyl {4-[1-(isobutylsulfonyl)-7-methyl-1H-pyrrolo[2,3-c]pyridin-4-yl]pyridin-2-yl}carbamate]
  inhibition at 1.11 µM: > 99%
  IC50: < 10 nM

## CCc1cc2c(-c3ccnc(NC(C)=O)c3)cncc2n1S(=O)(=O)c1ccccc1 [Compound I-24, N-{4-[2-ethyl-1-(phenylsulfonyl)-1H-pyrrolo[2,3-c]pyridin-4-yl]pyridin-2-yl}acetamide]
  inhibition at 1.11 µM: > 99%
  IC50: 10 to 50 nM

## CS(=O)(=O)n1ccc2c(-c3ccnc(Nc4ncco4)c3)cncc21 [Compound I-9, 4-[1-(methylsulfonyl)-1H-pyrrolo[2,3-c]pyridin-4-yl]-N-(1,3-oxazol-2-yl)pyridin-2-amine]
  inhibition at 1.11 µM: > 99%
  IC50: 10 to 50 nM

## CC(=O)Nc1cc(-c2cnc(CN)c3c2ccn3S(=O)(=O)C2CC2)ccn1 [Compound I-41, N-{4-[7-(aminomethyl)-1-(cyclopropylsulfonyl)-1H-pyrrolo[2,3-c]pyridin-4-yl]pyridin-2-yl}acetamide]
  inhibition at 1.11 µM: > 99%
  IC50: 10 to 50 nM
